# Results from patent US12577217B2, “15-PGDH inhibitor” (KYORIN Pharmaceutical Co., Ltd., priority 2019, dated 2026).
# Target: T1, recombinant human 15-PGDH (Homo sapiens, UniProt P15428)
# T1 construct: purchased R&D Systems
# T1 sequence (P15428 1-266): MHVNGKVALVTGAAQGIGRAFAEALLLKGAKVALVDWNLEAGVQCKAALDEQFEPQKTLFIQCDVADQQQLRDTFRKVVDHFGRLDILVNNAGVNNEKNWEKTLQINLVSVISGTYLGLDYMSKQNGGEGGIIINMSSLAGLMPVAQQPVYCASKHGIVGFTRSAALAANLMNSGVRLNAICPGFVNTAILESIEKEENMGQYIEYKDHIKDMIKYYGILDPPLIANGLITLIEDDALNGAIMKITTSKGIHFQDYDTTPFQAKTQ
# Test: 15-PGDH enzyme inhibition test
# Assay type: biochemical
# Conditions: 4 nM recombinant human 15-PGDH, 30 μM PGE2, 1 mM NAD+, 60 minutes after starting the reaction; read-out: IC50 Value
# Procedure, shortened: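 4 nM recombinant human enzyme pre-incubated with compound 12 min at room temperature in 50 mM Tris-HCl pH 8.0 with 0.01% Tween 20 and 0.01% bovine gamma globulin. Reaction started with 30 μM PGE2 and 1 mM NAD+, read after 60 min by fluorescence (ex 340/em 440 nm). IC50 from concentration-response curve.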
row,SMILES,IC50 [µM]
1,CN1Cc2cc(N3CCOc4cc(C(=O)N5CCC[C@H](C(F)(F)F)C5)cnc43)ccc2C1=O [Example 8-208],< 0.01
2,CN1Cc2cc(N3CCOc4cc(C(=O)N5CCCC(C)(F)C5)cnc43)ccc2C1=O (stereo not drawn) [Example 8-209],< 0.01
3,CC1CN(C(=O)c2cnc3c(c2)OCCN3c2ccc3c(c2)CN(C)C3=O)CCC1(F)F (stereo not drawn) [Example 8-210],< 0.01
4,CCn1nc2cc(N3CCOc4cc(C(=O)N5CCC(F)(F)CC5)cnc43)ccn2c1=O [Example 8-211],< 0.01
5,CCN1Cc2cc(N3CCOc4cc(C(=O)N5CCC(F)(F)CC5)cnc43)ccc2C1=O [Example 8-212],< 0.01
6,CCn1oc2cc(N3CCOc4cc(C(=O)N5CCCCC5)cnc43)ccc2c1=O [Example 8-213],< 0.01
7,CCn1oc2cc(N3CCOc4cc(C(=O)N5CCC(F)(F)CC5)cnc43)ccc2c1=O [Example 8-214],< 0.01
8,CCOc1noc2cc(N3CCOc4cc(C(=O)N5CCCCC5)cnc43)ccc12 [Example 8-215],< 0.01
9,CCOc1noc2cc(N3CCOc4cc(C(=O)N5CCC(F)(F)CC5)cnc43)ccc12 [Example 8-216],< 0.01
10,CCn1nc2cc(N3CCOc4cc(C(=O)N5CC=CCC5)cnc43)ccn2c1=O [Example 8-217],< 0.01
11,CCn1nc2cc(N3CCOc4cc(C(=O)N5CCCCC56COC6)cnc43)ccn2c1=O [Example 8-218],> 0.1
12,CCn1nc2cc(N3CCOc4cc(C(=O)N5CCN(C(C)=O)CC5)cnc43)ccn2c1=O [Example 8-219],> 0.1
13,CCn1nc2cc(N3CCOc4cc(C(=O)N5CCN(C(=O)OC(C)(C)C)CC5)cnc43)ccn2c1=O [Example 8-220],> 0.1
14,CCn1nc2cc(N3CCOc4cc(C(=O)N5CCN(C)C(=O)C5)cnc43)ccn2c1=O [Example 8-221],> 0.1
15,Cn1nc2cc(N3CCOc4cc(C(=O)N5CCCCC5)sc43)ccn2c1=O [Example 8-222],< 0.01
16,Cn1nc2cc(N3CCOc4cc(C(=O)N5CCC(F)(F)CC5)sc43)ccn2c1=O [Example 8-223],0.01 to 0.1
17,Cn1nc2cc(N3CCOc4cc(C(=O)N5CCCCCCC5)sc43)ccn2c1=O [Example 8-224],0.01 to 0.1
18,Cn1nc2cc(N3CCOc4cc(C(=O)N5CCOCC5)cnc43)ccn2c1=O [Example 8-225],0.01 to 0.1
19,CN1CCN(C(=O)c2cnc3c(c2)OCCN3c2ccn3c(=O)n(C)nc3c2)CC1 [Example 8-226],0.01 to 0.1
20,Cn1nc2cc(N3CCOc4cc(C(=O)N5CCC[C@H]5C(=O)OC(C)(C)C)cnc43)ccn2c1=O [Example 8-227],> 0.1
21,Cn1nc2cc(N3CCOc4cc(C(=O)N5CCC[C@@H]5C(=O)OC(C)(C)C)cnc43)ccn2c1=O [Example 8-228],> 0.1
22,Cn1nc2cc(N3CCOc4cc(C(=O)N5CC=CCC5)cnc43)ccn2c1=O [Example 8-229],< 0.01
23,Cn1nc2cc(N3CCOc4cc(C(=O)N5CCC(O)CC5)cnc43)ccn2c1=O [Example 8-230],< 0.01
24,"O=C(O)c1ccc(N2CCOc3c2ccc(C(=O)N2CCCCC2)c3C2CC2)cc1 [Example 9-1, 4-(8-Cyclopropyl-7-(piperidine-1-carbonyl)-2,3-dihydro-4H-benzo[b][1,4]oxazin-4-yl)benzoic Acid]",< 0.01

row,SMILES,IC50 [µM]
1,"CC(C)(O)c1ccc(N2CCOc3cc(C(=O)N4CCCCC4)ccc32)cc1 [Example 10-1, (4-(4-(2-Hydroxypropan-2-yl)phenyl)-3,4-dihydro-2H-benzo[b][1,4]oxazin-7-yl)(piperidin-1-yl)methanone]",< 0.01
2,CC(C)(O)c1ccc(N2CCOc3c2ccc(C(=O)N2CCCCC2)c3Cl)cc1 [Example 10-2],< 0.01
3,COC(=O)c1nc2ccc(N3CCOc4cc(C(=O)N5CCCCC5)cnc43)cc2s1 [Example 11-3],< 0.01
4,Cn1nc2cc(N3CCOc4cc(C(=O)N5CCCCC5)cnc43)cc(-n3ccnc3)n2c1=O [Example 11-4],0.01 to 0.1
5,COC(=O)c1ccc2nc(N3CCOc4cc(C(=O)N5CCCCC5)cnc43)cn2c1 [Example 11-5],> 0.1
6,COC(=O)c1ccc2cc(N3CCOc4cc(C(=O)N5CCCCC5)cnc43)nn2c1 [Example 11-6],< 0.01
7,O=C(c1cnc2c(c1)OCCN2c1ccc2c(=O)[nH]oc2c1)N1CCCCC1 [Example 14-1],< 0.01
8,O=C1NCc2cc(N3CCOc4cc(C(=O)N5CCCCC5)cnc43)ccc21 [Example 14-2],< 0.01
9,O=C1NCc2cc(N3CCOc4cc(C(=O)N5CCC(F)(F)CC5)ccc43)ccc21 [Example 14-3],< 0.01
10,O=C1NCc2cc(N3CCCc4cc(C(=O)N5CCCCC5)cnc43)ccc21 [Example 14-4],< 0.01
11,O=C1NCc2cc(N3CCCc4cc(C(=O)N5CCC(F)(F)CC5)cnc43)ccc21 [Example 14-5],< 0.01
12,O=C1NCc2cc(N3CCOc4cc(C(=O)N5CCC(F)(F)CC5)cnc43)ccc21 [Example 14-6],< 0.01
13,O=C(c1cnc2c(c1)CCCN2c1ccc(-c2nn[nH]n2)cc1)N1CCCCC1 [Example 14-7],< 0.01
14,O=C(c1cnc2c(c1)OCCN2c1ccc2c(=O)[nH]ncc2c1)N1CCCCC1 [Example 14-8],< 0.01
15,O=C1NCc2cc(N3CCOc4cc(C(=O)N5CCCCC5)cnc43)ncc21 [Example 14-9],< 0.01
16,O=C(c1cnc2c(c1)OCCN2c1ccc(-c2nnn[nH]2)cc1)N1CCCCC1 [Example 14-10],< 0.01
17,"CC(C)(O)Cn1nc2cc(N3CCOc4cc(C(=O)N5CCCCC5)cnc43)ccn2c1=O [Example 15-1, 2-(2-Hydroxy-2-methylpropyl)-7-(7-(piperidine-1-carbonyl)-2,3-dihydro-4H-pyrido[3,2-b][1,4]oxazin-4-yl)-[1,2,4]triazolo[4,3-a]pyridin-3(2H)-one]",< 0.01
18,"CCCN(C)C(=O)c1cnc2c(c1)OCCN2c1ccn2c(=O)n(C)nc2c1 [Example 17-1, N-Methyl-4-(2-methyl-3-oxo-2,3-dihydro-[1,2,4]triazolo[4,3-a]pyridin-7-yl)-N-propyl-3,4-dihydro-2H-pyrido[3,2-b][1,4]oxazine-7-carboxamide]",< 0.01
19,CN(CC1CCCC1)C(=O)c1cnc2c(c1)OCCN2c1ccn2c(=O)n(C)nc2c1 [Example 17-3],< 0.01
20,"CO[C@@H]1CCCN(C(=O)c2cnc3c(c2)OCCN3c2ccn3c(=O)n(C)nc3c2)C1 [Example 18-1, (R)-7-(7-(3-Methoxypiperidine-1-carbonyl)-2,3-dihydro-4H-pyrido[3,2-b] [1,4]oxazin-4-yl)-2-methyl-[1,2,4]triazolo[4,3-a]pyridin-3(2H)-one]",< 0.01
21,CO[C@H]1CCCN(C(=O)c2cnc3c(c2)OCCN3c2ccn3c(=O)n(C)nc3c2)C1 [Example 18-2],< 0.01
22,"Cn1nc2cc(N3CCOc4cc(C(O)C5CCCCC5)cnc43)ccn2c1=O (stereo not drawn) [Example 19-1, 7-(7-(Cyclohexyl(hydroxy)methyl)-2,3-dihydro-4H-pyrido[3,2-b] [1,4]oxazin-4-yl)-2-methyl-[1,2,4]triazolo[4,3-a]pyridin-3 (2H)-one]",< 0.01
23,Cn1nc2cc(N3CCOc4cc(C(O)C5CCC(F)(F)CC5)cnc43)ccn2c1=O (stereo not drawn) [Example 19-2],0.01 to 0.1
24,"O=C(O)c1ccc(N2CCOc3cc(C(=O)N4CCCCC4)cnc32)cc1F [Example 20-1, 2-Fluoro-4-(7-(piperidine-1-carbonyl)-2,3-dihydro-4H-pyrido[3,2-b][1,4]oxazin-4-yl)benzoic Acid]",< 0.01
